Experimental data published in US20230085307A1, “PYRIDAZINONE COMPOUND AND HERBICIDE” (NISSAN CHEMICAL CORPORATION, priority 2019, published 2023).

Legend:
late watergrass = experiment: Test Example 2: herbicidal activity, application during weed generation under submerged conditions (Table 17, symbol A); type: in vivo, late watergrass (Echinochloa oryzicola); conditions: AAH 320 g/ha; application during weed generation, submerged conditions
Outline: (§1)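 Steps: fill Wagner pots with alluvial soil; add water to give 4 cm depth; sow the species mixed; grow under glass at 25–30° C.; at 1–2 leaves apply water-diluted emulsion formulation to the water surface at a fixed herbicide amount; score after 3 weeks.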

Japanese bulrush = experiment: Test Example 2: herbicidal activity, application during weed generation under submerged conditions (Table 17, symbol B); type: in vivo, Japanese bulrush (Schoenoplectus juncoides); conditions: AAH 320 g/ha; application during weed generation, submerged conditions
Outline: as §1

oval-leafed pondweed = experiment: Test Example 2: herbicidal activity, application during weed generation under submerged conditions (Table 17, symbol C); type: in vivo, oval-leafed pondweed (Monochoria vaginalis); conditions: AAH 320 g/ha; application during weed generation, submerged conditions
Outline: as §1

barnyard grass [1] = experiment: Test Example 3: herbicidal effect by foliage application, Wagner pot (Table 18, symbol H); type: in vivo, barnyard grass (Echinochloa crus-galli); conditions: amount of applied herbicide 320 g/ha
Outline: (§2)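 Plants were sown in alluvial soil held under 0.1–0.5 cm standing water and grown 14 days in a greenhouse at 25–30 °C. An emulsifiable formulation, water-diluted to the set dose, was then sprayed onto the foliage, and effects were scored three weeks later using previously defined criteria.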

Chinese sprangletop = experiment: Test Example 3: herbicidal effect by foliage application, Wagner pot (Table 18, symbol D); type: in vivo, chinese sprangletop (Leptochloa chinensis); conditions: amount of applied herbicide 320 g/ha
Outline: as §2

rice flat sedge = experiment: Test Example 3: herbicidal effect by foliage application, Wagner pot (Table 18, symbol E); type: in vivo, rice flat sedge (Cyperus iria); conditions: amount of applied herbicide 320 g/ha
Outline: as §2

southern crabgrass [2] = experiment: Test Example 4: herbicidal effect by soil treatment (Table 19, symbol F); type: in vivo, southern crabgrass (Digitaria ciliaris); conditions: amount of applied herbicide 320 g/ha
Outline: (§3)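 Emulsion of test compound, water-diluted to predetermined amount, sprayed on soil after sowing (seed depth ~1.5 cm, sterilized diluvial soil). Greenhouse, 25–30° C. Effect graded at three weeks post-spray.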

green foxtail [3] = experiment: Test Example 4: herbicidal effect by soil treatment (Table 19, symbol G); type: in vivo, green foxtail (Setaria viridis); conditions: amount of applied herbicide 320 g/ha
Outline: as §3

barnyard grass [4] = experiment: Test Example 4: herbicidal effect by soil treatment (Table 19, symbol H); type: in vivo, barnyard grass (Echinochloa crus-galli); conditions: amount of applied herbicide 320 g/ha
Outline: as §3

wild oat [5] = experiment: Test Example 4: herbicidal effect by soil treatment (Table 19, symbol I); type: in vivo, wild oat (Avena fatua); conditions: amount of applied herbicide 320 g/ha
Outline: as §3

blackgrass [6] = experiment: Test Example 4: herbicidal effect by soil treatment (Table 19, symbol J); type: in vivo, blackgrass (Alopecurus myosuroides); conditions: amount of applied herbicide 320 g/ha
Outline: as §3

Italian ryegrass [7] = experiment: Test Example 4: herbicidal effect by soil treatment (Table 19, symbol K); type: in vivo, Italian ryegrass (Lolium multiflorum); conditions: amount of applied herbicide 320 g/ha
Outline: as §3

windgrass [8] = experiment: Test Example 4: herbicidal effect by soil treatment (Table 19, symbol L); type: in vivo, windgrass (Apera spica-venti); conditions: amount of applied herbicide 320 g/ha
Outline: as §3

velvetleaf [9] = experiment: Test Example 4: herbicidal effect by soil treatment (Table 19, symbol M); type: in vivo, velvetleaf (Abutilon theophrasti); conditions: amount of applied herbicide 320 g/ha
Outline: as §3

redroot pigweed [10] = experiment: Test Example 4: herbicidal effect by soil treatment (Table 19, symbol N); type: in vivo, redroot pigweed (Amaranthus retroflexus); conditions: amount of applied herbicide 320 g/ha
Outline: as §3

lambsquarters [11] = experiment: Test Example 4: herbicidal effect by soil treatment (Table 19, symbol O); type: in vivo, lambsquarters (Chenopodium album); conditions: amount of applied herbicide 320 g/ha
Outline: as §3

chickweed [12] = experiment: Test Example 4: herbicidal effect by soil treatment (Table 19, symbol P); type: in vivo, common chickweed (Stellaria media); conditions: amount of applied herbicide 320 g/ha
Outline: as §3

persian speedwell [13] = experiment: Test Example 4: herbicidal effect by soil treatment (Table 19, symbol R); type: in vivo, Persian speedwell (Veronica persica); conditions: amount of applied herbicide 320 g/ha
Outline: as §3

southern crabgrass [14] = experiment: Test Example 5: herbicidal effect by foliage application, plastic box (Table 20, symbol F); type: in vivo, southern crabgrass (Digitaria ciliaris); conditions: foliage application, 320 g/ha, evaluated three weeks after application
Outline: (§4)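 Post-emergence foliar test in sterilized diluvial soil. Compound applied as water-diluted emulsion at a predetermined rate to 14-day-old plants; evaluation at three weeks.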

green foxtail [15] = experiment: Test Example 5: herbicidal effect by foliage application, plastic box (Table 20, symbol G); type: in vivo, green foxtail (Setaria viridis); conditions: foliage application, 320 g/ha, evaluated three weeks after application
Outline: as §4

barnyard grass [16] = experiment: Test Example 5: herbicidal effect by foliage application, plastic box (Table 20, symbol H); type: in vivo, barnyard grass (Echinochloa crus-galli); conditions: foliage application, 320 g/ha, evaluated three weeks after application
Outline: as §4

wild oat [17] = experiment: Test Example 5: herbicidal effect by foliage application, plastic box (Table 20, symbol I); type: in vivo, wild oat (Avena fatua); conditions: foliage application, 320 g/ha, evaluated three weeks after application
Outline: as §4

blackgrass [18] = experiment: Test Example 5: herbicidal effect by foliage application, plastic box (Table 20, symbol J); type: in vivo, blackgrass (Alopecurus myosuroides); conditions: foliage application, 320 g/ha, evaluated three weeks after application
Outline: as §4

Italian ryegrass [19] = experiment: Test Example 5: herbicidal effect by foliage application, plastic box (Table 20, symbol K); type: in vivo, Italian ryegrass (Lolium multiflorum); conditions: foliage application, 320 g/ha, evaluated three weeks after application
Outline: as §4

windgrass [20] = experiment: Test Example 5: herbicidal effect by foliage application, plastic box (Table 20, symbol L); type: in vivo, windgrass (Apera spica-venti); conditions: foliage application, 320 g/ha, evaluated three weeks after application
Outline: as §4

velvetleaf [21] = experiment: Test Example 5: herbicidal effect by foliage application, plastic box (Table 20, symbol M); type: in vivo, velvetleaf (Abutilon theophrasti); conditions: foliage application, 320 g/ha, evaluated three weeks after application
Outline: as §4

redroot pigweed [22] = experiment: Test Example 5: herbicidal effect by foliage application, plastic box (Table 20, symbol N); type: in vivo, redroot pigweed (Amaranthus retroflexus); conditions: foliage application, 320 g/ha, evaluated three weeks after application
Outline: as §4

lambsquarters [23] = experiment: Test Example 5: herbicidal effect by foliage application, plastic box (Table 20, symbol O); type: in vivo, lambsquarters (Chenopodium album); conditions: foliage application, 320 g/ha, evaluated three weeks after application
Outline: as §4

chickweed [24] = experiment: Test Example 5: herbicidal effect by foliage application, plastic box (Table 20, symbol P); type: in vivo, common chickweed (Stellaria media); conditions: foliage application, 320 g/ha, evaluated three weeks after application
Outline: as §4

persian speedwell [25] = experiment: Test Example 5: herbicidal effect by foliage application, plastic box (Table 20, symbol R); type: in vivo, Persian speedwell (Veronica persica); conditions: foliage application, 320 g/ha, evaluated three weeks after application
Outline: as §4

COc1ccc(-c2sc3ccc(Cl)cc3c2-c2c(O)c(C)nn(C)c2=O)cc1F [2-117]
herbicidal effect rating, A: late watergrass (late watergrass): 0 (Herbicidal rate of 5% or less (almost no effect))
herbicidal effect rating, B: Japanese bulrush (Japanese bulrush): 2 (Herbicidal rate of 20% or more and less than 40%)
herbicidal effect rating, C: oval-leafed pondweed (oval-leafed pondweed): 3 (Herbicidal rate of 40% or more and less than 70%)
herbicidal effect on H: barnyard grass (barnyard grass [1]): 3 (Herbicidal rate of 40% or more and less than 70%)
herbicidal effect on D: Chinese sprangletop (Chinese sprangletop): 3 (Herbicidal rate of 40% or more and less than 70%)
herbicidal effect on E: rice flat sedge (rice flat sedge): 5 (Herbicidal rate of 90% or more (almost completely withered))
F: southern crabgrass, herbicidal effect rating (southern crabgrass [2]): 0 (Herbicidal rate of 5% or less (almost no effect))
G: green foxtail, herbicidal effect rating (green foxtail [3]): 0 (Herbicidal rate of 5% or less (almost no effect))
H: barnyard grass, herbicidal effect rating (barnyard grass [4]): 0 (Herbicidal rate of 5% or less (almost no effect))
I: wild oat, herbicidal effect rating (wild oat [5]): 0 (Herbicidal rate of 5% or less (almost no effect))
J: blackgrass, herbicidal effect rating (blackgrass [6]): 0 (Herbicidal rate of 5% or less (almost no effect))
K: Italian ryegrass, herbicidal effect rating (Italian ryegrass [7]): 0 (Herbicidal rate of 5% or less (almost no effect))
L: windgrass, herbicidal effect rating (windgrass [8]): 0 (Herbicidal rate of 5% or less (almost no effect))
M: velvetleaf, herbicidal effect rating (velvetleaf [9]): 0 (Herbicidal rate of 5% or less (almost no effect))
N: redroot pigweed, herbicidal effect rating (redroot pigweed [10]): 1 (Herbicidal rate of 5% or more and less than 20%)
O: lambsquarters, herbicidal effect rating (lambsquarters [11]): 3 (Herbicidal rate of 40% or more and less than 70%)
P: chickweed, herbicidal effect rating (chickweed [12]): 0 (Herbicidal rate of 5% or less (almost no effect))
R: persian speedwell, herbicidal effect rating (persian speedwell [13]): 1 (Herbicidal rate of 5% or more and less than 20%)
herbicidal effect on F: southern crabgrass (southern crabgrass [14]): 0 (Herbicidal rate of 5% or less (almost no effect))
herbicidal effect on G: green foxtail (green foxtail [15]): 0 (Herbicidal rate of 5% or less (almost no effect))
herbicidal effect on H: barnyard grass (barnyard grass [16]): 0 (Herbicidal rate of 5% or less (almost no effect))
herbicidal effect on I: wild oat (wild oat [17]): 0 (Herbicidal rate of 5% or less (almost no effect))
herbicidal effect on J: blackgrass (blackgrass [18]): 0 (Herbicidal rate of 5% or less (almost no effect))
herbicidal effect on K: Italian ryegrass (Italian ryegrass [19]): 0 (Herbicidal rate of 5% or less (almost no effect))
herbicidal effect on L: windgrass (windgrass [20]): 0 (Herbicidal rate of 5% or less (almost no effect))
herbicidal effect on M: velvetleaf (velvetleaf [21]): 4 (Herbicidal rate of 70% or more and less than 90%)
herbicidal effect on N: redroot pigweed (redroot pigweed [22]): 3 (Herbicidal rate of 40% or more and less than 70%)
herbicidal effect on O: lambsquarters (lambsquarters [23]): 3 (Herbicidal rate of 40% or more and less than 70%)
herbicidal effect on P: chickweed (chickweed [24]): 5 (Herbicidal rate of 90% or more (almost completely withered))
herbicidal effect on R: persian speedwell (persian speedwell [25]): 5 (Herbicidal rate of 90% or more (almost completely withered))
